Measured values as given in PMC8717366, “Synthesis and Pharmacological Characterization of Visabron, a Backbone Cyclic Peptide Dual Antagonist of α4β1 (VLA-4)/α9β1 Integrin for Therapy of Multiple Sclerosis” (JACS Au, 2021).
Read-outs that look alike come from different tables or passages of the source. Numbered stars: 1 amine (or outer) side, 2 acyl side, 3 side chain; on linkers, the order of the positions; unused ones are H or OH. Bridge positions count the residues as written; N and C are the ends. Square brackets hold non-standard residues; d marks the D form. Peptide text beside a SMILES is read from it. N(6-aminohexyl)Gly = O=C(CN(CCCCCCN[*:3])[*:1])[*:2]; CO = O=C([*:1])[*:2]; Nlys = NCCCCNCC(=O)O

Experiments:
α5β1-fibronectin = biological target: T1, α5β1-fibronectin (Homo sapiens, UniProt P05556+P08648); test: Adhesion of wild-type K562 cells to immobilized fibronectin; assay type: cell-based
T1 construct: host or cells: K562 wild type
Procedure: (§1) Cell adhesion assay was carried out as previously described[47] with minor modifications. The day before the experiment, each well was coated with VCAM-1 (3 mg/mL) immobilized on the 96-well plate in PBS by overnight incubation at 4 °C. Thereafter, nonspecific binding was blocked by incubating the wells with 1% (w/v) bovine serum albumin (BSA) in Hank’s Balanced Salt Solution (HBSS) containing 5 mM MgCl2 at room temperature for 1 h before use. The cells were labeled by incubation with 12.5 μM 5-chloromethylfluorescein diacetate (CMFDA) in HBSS without 1% BSA at 37 °C for 30 min. The labeled cells were then centrifuged at 1000 rpm and washed twice with HBSS containing 1% BSA to remove excess CMFDA. Labeled cells (about 1 × 10^5 cells/well) were plated on each well in the presence or absence of visabrons and incubated at 37 °C for 60 min. Unbound cells were removed by washing the wells three times with 1% (w/v) BSA in HBSS, and bound cells were lysed by the addition of 0.5% Triton X-100 (diluted in DDW). The fluorescence in each well was quantified with a SPECTRAFluor Plus plate reader (Tecan), at λex = 485 nm and λem = 530 nm. To determine the number of adhered cells from the fluorescence values, a standard curve was generated by serial dilution of known numbers of CMFDA-labeled cells. […]
(§2) Table S6. TMLD- linear peptides inhibition of adhesion of integrin expressing cells to the respective immobilized ligands a a The cells were incubated for 30 min at 37 °C with the cells (1 x 105) in the 96 -well plate, previously covered with extracellular matrix ligand, in 100 µL of HBSS containing calcium and magnesium. After being washed with the same buffer, the adhered cells were lysed by Triton X-100, and the plate was read using Tecan spectrofluorimeter. The inhibitory dose 50% (IC 50) values represent ing mean ± standard deviatio ns (n=6) were calculated from dose response curves. bJurkat cells,VCAM -1; c α9-SW480 overexpressing cells, VCAM-1; d α1-K562 overexpressing cells, collagen IV ;e α2-K562 overexpressing cells, collagen I; f K562 wild type

α4β7-MAdCAM-1 Fc chimera = biological target: T2, α4β7-MAdCAM-1 Fc chimera (Homo sapiens, UniProt P13612+P26010); test: ELISA solid-phase ligand-receptor binding, integrin α4β7 to MAdCAM-1 Fc chimera
T2 construct: purchased R&D Systems Co (Minneapolis, MN)
Procedure: (§3) Recombinant human VCAM-1 and MadCAM-1 (3 mg/mL in phosphate-buffered saline containing divalent cations), were immobilized on the wells of a 96-well ELISA plate (Dynatech Immulon) by overnight incubation at 4 °C. After washing with HBSST (Hanks’ Balanced Salt solution containing calcium and magnesium and 0.05% Tween-20) the plates were blocked with 5% BSA in HBSST by incubation at 37 °C for 1 h. The plates were washed with HBSST, and recombinant human integrin α4β1 or α4β7 (3 mg/mL) was added in the presence or absence of competitor cyclic peptides, disintegrins, or monoclonal anti-integrin antibodies dissolved in HBSS containing 1% BSA. The plates were thereafter incubated at 30 °C for 3 h, as time-binding had reached a plateau, and then washed 3 times with HBSST. Bound integrins were quantitated using primary anti-integrin polyclonal and monoclonal antibodies at a concentration of 0.5 mg/mL in HBSST containing 1% BSA, and incubated at 37 °C for 1 h. The plates were washed 3 times with HBSST and secondary antibodies- alkaline phosphatase (AP) conjugated (Sigma Co.) were added at dilution 1:1000 and incubated at 37 °C for 1 h. Thereafter, the plates were washed 3 times with HBSST and twice with HBSS and the alkaline phosphatase substrate 4-nitrophenyl phosphate was added to the wells for 30 min. The plates were read using Tecan Spectrophotometer at 405 nm. The level of nonspecific binding was measured in each experiment by determining the level of binding to wells coated with BSA alone.

α9β1-VCAM-1 Fc chimera = α9β1-VCAM-1 Fc chimera (Homo sapiens, UniProt P05556+Q13797); test: ELISA binding assay, α9β1 to VCAM-1 Fc chimera
α1β1-collagen IV = biological target: T3, α1β1-collagen IV (Homo sapiens, UniProt P05556+P56199); test: Adhesion of α1-K562 overexpressor cells to immobilized collagen IV; assay type: cell-based
T3 construct: expressed in transfected cells; host or cells: K562 transfected with α1 integrin (gift of Dr. M. Hemler)
Procedure: as §1, §2

α2β1-collagen I = biological target: T4, α2β1-collagen I (Homo sapiens, UniProt P05556+P17301); test: Adhesion of α2-K562 overexpressor cells to immobilized collagen I; assay type: cell-based
T4 construct: expressed in transfected cells; host or cells: K562 transfected with α2 integrin (gift of Dr. M. Hemler)
Procedure: as §1, §2

[1] = biological target: T5, α4β1 (Jurkat lymphocytes-VCAM-1) (Homo sapiens, UniProt P05556+P13612); test: Adhesion of Jurkat lymphocytes to immobilized VCAM-1; assay type: cell-based
T5 construct: host or cells: Jurkat (untreated or TNFα-treated)
Procedure: as §1, §2

[2] = system: U937 macrophages-VCAM-1 (α4β1, αMβ2, α3β1, α6β1); test: Adhesion of U937 macrophages to immobilized VCAM-1; assay type: cell-based, human
Procedure: Cell adhesion assay was carried out as previously described[47] with minor modifications. The day before the experiment, each well was coated with VCAM-1 (3 mg/mL) immobilized on the 96-well plate in PBS by overnight incubation at 4 °C. Thereafter, nonspecific binding was blocked by incubating the wells with 1% (w/v) bovine serum albumin (BSA) in Hank’s Balanced Salt Solution (HBSS) containing 5 mM MgCl2 at room temperature for 1 h before use. The cells were labeled by incubation with 12.5 μM 5-chloromethylfluorescein diacetate (CMFDA) in HBSS without 1% BSA at 37 °C for 30 min. The labeled cells were then centrifuged at 1000 rpm and washed twice with HBSS containing 1% BSA to remove excess CMFDA. Labeled cells (about 1 × 10^5 cells/well) were plated on each well in the presence or absence of visabrons and incubated at 37 °C for 60 min. Unbound cells were removed by washing the wells three times with 1% (w/v) BSA in HBSS, and bound cells were lysed by the addition of 0.5% Triton X-100 (diluted in DDW). The fluorescence in each well was quantified with a SPECTRAFluor Plus plate reader (Tecan), at λex = 485 nm and λem = 530 nm. To determine the number of adhered cells from the fluorescence values, a standard curve was generated by serial dilution of known numbers of CMFDA-labeled cells.

α4β1-VCAM-1 Fc chimera = biological target: T6, α4β1-VCAM-1 Fc chimera (Homo sapiens, UniProt P05556+P13612); test: ELISA solid-phase ligand-receptor binding, integrin α4β1 to VCAM-1 Fc chimera
T6 construct: purchased R&D Systems Co (Minneapolis, MN)
Procedure: as §3

α9β1 = biological target: T7, α9β1 (Homo sapiens, UniProt P05556+Q13797); test: Adhesion of α9-SW480 overexpressing cells to VCAM-1; assay type: cell-based; conditions: n=6, Table S6, read-out: IC50 α9β1 (linear peptides)
T7 construct: generated by transfection with full-length α9 expression plasmid pcDNAIneoa9; expressed in transfected cells; host or cells: SW480 transfected with pcDNAIneoa9
Procedure: as §2, with “type […]” for “type”
(1 picture or pasted object on this page, not shown here)

[3] = wild-type K562 (α5β1), 30 min at 37 °C, read-out: IC50 α5β1-fibronectin
[4] = α1-K562 overexpressed cells, 30 min at 37 °C, read-out: IC50 α1β1-collagen IV
[5] = α2-K562 overexpressed cells, 30 min at 37 °C, read-out: IC50 α2β1-collagen I
[6] = Jurkat treated with TNF-α (10 ng/mL) for 24 h, read-out: IC50 Jurkat lymphocytes-VACAM-1 TNFα
[7] = untreated Jurkat lymphocytes (α4β1), read-out: IC50 Jurkat lymphocytes-VACAM-1 control
[8] = K562 wild type cells, fibronectin, n=6, Table S6, read-out: IC50 α5β1 (linear peptides)
[9] = α1-K562 overexpressing cells, collagen IV, n=6, Table S6, read-out: IC50 α1β1 (linear peptides)
[10] = α2-K562 overexpressing cells, collagen I, n=6, Table S6, read-out: IC50 α2β1 (linear peptides)
[11] = Jurkat cells, VCAM-1, n=6, Table S6, read-out: IC50 α4β1 (linear peptides)

T4 sequence (P17301 30-1181): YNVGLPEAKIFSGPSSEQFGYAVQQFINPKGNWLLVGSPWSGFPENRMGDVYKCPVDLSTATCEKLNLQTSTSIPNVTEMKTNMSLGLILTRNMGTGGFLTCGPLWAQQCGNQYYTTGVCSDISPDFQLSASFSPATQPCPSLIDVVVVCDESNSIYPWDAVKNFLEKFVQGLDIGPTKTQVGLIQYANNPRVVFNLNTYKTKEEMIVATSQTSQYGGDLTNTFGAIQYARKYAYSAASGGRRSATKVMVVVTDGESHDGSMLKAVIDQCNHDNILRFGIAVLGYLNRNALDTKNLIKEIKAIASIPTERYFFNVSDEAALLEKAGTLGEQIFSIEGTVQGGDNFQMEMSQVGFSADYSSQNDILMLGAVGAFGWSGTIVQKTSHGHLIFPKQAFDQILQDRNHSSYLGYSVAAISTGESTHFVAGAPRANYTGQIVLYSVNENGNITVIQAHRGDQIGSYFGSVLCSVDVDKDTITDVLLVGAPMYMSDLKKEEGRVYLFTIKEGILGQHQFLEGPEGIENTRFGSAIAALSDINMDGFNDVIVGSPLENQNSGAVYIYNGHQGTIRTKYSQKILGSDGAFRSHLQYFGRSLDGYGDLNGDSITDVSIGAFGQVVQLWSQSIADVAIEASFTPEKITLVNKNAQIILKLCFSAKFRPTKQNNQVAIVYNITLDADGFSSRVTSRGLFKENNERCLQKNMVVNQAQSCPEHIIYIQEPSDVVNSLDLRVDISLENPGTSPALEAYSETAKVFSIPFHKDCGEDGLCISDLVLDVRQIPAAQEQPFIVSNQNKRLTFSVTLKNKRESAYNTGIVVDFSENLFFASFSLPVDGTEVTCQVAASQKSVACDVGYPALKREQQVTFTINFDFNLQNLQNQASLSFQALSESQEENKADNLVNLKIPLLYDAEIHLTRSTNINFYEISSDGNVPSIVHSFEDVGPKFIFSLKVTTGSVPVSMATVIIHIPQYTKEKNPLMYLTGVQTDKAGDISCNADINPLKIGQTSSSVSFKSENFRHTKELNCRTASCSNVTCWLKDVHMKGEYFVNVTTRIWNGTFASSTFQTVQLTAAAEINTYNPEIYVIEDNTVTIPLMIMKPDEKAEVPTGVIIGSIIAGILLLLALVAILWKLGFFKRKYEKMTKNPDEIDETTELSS
T4 sequence (P05556 21-798): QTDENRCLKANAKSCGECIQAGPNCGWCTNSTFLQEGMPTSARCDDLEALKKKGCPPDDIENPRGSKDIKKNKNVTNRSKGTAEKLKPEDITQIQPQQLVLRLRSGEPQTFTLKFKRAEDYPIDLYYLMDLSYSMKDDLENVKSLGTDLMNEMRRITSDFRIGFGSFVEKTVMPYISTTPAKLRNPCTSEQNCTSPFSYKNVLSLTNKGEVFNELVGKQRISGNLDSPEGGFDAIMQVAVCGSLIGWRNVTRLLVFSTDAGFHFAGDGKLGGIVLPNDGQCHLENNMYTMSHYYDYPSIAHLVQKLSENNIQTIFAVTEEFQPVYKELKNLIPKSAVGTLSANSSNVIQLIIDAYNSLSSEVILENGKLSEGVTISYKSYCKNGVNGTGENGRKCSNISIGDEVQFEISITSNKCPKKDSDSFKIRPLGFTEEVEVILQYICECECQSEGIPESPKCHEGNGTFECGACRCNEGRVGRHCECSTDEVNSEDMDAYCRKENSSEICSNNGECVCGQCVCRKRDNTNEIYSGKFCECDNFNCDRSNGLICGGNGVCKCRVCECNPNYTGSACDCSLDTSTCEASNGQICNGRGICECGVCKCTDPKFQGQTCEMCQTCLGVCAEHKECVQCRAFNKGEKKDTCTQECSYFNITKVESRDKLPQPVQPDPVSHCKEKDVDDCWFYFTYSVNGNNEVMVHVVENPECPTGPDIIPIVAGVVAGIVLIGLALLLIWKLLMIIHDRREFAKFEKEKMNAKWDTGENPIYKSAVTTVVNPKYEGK
T5 sequence (P13612 34-1032): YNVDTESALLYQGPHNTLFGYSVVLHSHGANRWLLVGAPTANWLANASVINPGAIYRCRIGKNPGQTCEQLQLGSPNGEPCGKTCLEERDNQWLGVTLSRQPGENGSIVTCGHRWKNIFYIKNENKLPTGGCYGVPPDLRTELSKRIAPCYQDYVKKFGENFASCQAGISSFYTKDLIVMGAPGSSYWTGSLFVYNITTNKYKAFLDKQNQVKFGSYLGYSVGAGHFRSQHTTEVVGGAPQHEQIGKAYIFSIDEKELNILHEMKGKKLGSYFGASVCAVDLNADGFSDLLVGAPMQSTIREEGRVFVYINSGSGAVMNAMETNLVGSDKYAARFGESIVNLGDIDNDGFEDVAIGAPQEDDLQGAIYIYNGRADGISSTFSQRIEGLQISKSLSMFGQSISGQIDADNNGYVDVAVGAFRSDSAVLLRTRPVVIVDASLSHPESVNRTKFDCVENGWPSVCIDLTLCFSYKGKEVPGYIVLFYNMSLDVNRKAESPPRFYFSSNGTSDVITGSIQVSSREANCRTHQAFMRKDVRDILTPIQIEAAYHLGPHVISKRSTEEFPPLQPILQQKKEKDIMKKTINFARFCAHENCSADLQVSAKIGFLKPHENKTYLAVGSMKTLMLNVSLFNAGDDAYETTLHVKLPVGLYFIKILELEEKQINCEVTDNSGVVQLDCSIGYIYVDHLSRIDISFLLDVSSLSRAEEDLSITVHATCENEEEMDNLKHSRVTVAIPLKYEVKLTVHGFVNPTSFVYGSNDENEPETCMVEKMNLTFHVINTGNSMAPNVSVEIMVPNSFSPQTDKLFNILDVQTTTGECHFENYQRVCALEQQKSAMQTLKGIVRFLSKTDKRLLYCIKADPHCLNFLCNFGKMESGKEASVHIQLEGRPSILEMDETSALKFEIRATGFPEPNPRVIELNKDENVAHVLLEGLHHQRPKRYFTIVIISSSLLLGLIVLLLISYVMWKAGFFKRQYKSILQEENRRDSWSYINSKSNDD
T5 sequence (P05556 21-798): as the sequence (P05556 21-798) above
T1 sequence (P08648 42-894 limits assumed): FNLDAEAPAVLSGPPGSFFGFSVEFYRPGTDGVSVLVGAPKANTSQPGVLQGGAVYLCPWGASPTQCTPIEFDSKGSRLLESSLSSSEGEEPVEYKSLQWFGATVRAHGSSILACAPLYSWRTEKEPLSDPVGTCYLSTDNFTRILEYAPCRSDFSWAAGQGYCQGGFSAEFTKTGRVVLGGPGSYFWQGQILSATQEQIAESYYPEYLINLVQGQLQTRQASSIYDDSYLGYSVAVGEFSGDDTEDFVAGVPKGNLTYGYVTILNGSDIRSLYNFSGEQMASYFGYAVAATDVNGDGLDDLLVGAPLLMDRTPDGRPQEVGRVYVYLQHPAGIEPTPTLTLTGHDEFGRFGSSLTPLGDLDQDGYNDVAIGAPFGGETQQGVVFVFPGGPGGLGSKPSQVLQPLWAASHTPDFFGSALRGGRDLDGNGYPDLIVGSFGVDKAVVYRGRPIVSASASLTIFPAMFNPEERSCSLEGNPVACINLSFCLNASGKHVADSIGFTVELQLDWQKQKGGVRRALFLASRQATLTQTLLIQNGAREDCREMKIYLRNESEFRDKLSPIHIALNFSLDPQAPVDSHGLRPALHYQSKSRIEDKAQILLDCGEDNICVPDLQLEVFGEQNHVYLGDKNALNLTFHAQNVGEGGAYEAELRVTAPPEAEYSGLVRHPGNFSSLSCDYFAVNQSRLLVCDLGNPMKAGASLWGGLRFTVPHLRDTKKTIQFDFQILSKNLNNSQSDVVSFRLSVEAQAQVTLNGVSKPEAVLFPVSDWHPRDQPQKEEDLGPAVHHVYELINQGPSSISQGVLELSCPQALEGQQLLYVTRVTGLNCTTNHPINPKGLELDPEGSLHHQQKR
T1 sequence (P08648 895-1049 limits assumed): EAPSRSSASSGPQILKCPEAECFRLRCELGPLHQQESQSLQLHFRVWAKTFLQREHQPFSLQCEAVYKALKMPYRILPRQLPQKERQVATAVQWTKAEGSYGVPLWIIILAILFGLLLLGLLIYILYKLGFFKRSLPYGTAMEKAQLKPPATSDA
T1 sequence (P05556 21-798): as the sequence (P05556 21-798) above
T7 sequence (Q13797 30-1035): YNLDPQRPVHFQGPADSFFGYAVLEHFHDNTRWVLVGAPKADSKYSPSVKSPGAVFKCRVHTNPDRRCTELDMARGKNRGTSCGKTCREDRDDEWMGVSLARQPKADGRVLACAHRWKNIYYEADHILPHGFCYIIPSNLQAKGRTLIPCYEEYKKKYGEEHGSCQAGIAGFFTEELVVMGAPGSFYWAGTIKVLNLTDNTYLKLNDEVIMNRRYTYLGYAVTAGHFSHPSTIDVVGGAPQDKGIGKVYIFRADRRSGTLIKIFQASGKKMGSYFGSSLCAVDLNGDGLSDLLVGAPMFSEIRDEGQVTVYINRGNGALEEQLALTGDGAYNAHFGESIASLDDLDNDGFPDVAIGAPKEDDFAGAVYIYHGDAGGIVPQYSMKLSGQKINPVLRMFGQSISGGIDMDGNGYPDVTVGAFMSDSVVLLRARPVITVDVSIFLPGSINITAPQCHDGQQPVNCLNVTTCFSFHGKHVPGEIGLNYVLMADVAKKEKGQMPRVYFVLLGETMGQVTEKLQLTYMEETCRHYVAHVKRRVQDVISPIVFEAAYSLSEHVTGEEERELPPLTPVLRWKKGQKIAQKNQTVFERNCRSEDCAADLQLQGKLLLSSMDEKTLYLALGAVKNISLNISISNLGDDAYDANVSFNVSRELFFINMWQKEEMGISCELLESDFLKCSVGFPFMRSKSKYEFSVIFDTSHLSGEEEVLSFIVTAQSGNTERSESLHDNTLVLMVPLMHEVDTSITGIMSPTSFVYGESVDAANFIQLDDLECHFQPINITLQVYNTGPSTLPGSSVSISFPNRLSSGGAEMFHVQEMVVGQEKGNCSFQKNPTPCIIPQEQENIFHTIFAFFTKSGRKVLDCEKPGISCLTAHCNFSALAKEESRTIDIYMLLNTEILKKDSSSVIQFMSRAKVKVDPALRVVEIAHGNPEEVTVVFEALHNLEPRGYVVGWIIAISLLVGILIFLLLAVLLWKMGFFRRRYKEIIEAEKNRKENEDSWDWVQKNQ
T7 sequence (P05556 21-798): as the sequence (P05556 21-798) above

| SMILES | IC50 (α5β1-fibronectin; [3]) | IC50 (α4β7-MAdCAM-1 Fc chimera) | IC50 (α9β1-VCAM-1 Fc chimera) | IC50 (α1β1-collagen IV; [4]) | IC50 (α2β1-collagen I; [5]) | IC50 [1, 6] | IC50 [1, 7] | IC50 ([2]; U937 treated with PMA (10 ng/mL) for 24 h, read-out: IC50 U937 macrophages-VCAM-1 PMA) | IC50 ([2]; untreated U937, read-out: IC50 U937 macrophages-VCAM-1 control) | IC50 (α4β1-VCAM-1 Fc chimera) | IC50 (α5β1-fibronectin; [8]) | IC50 (α1β1-collagen IV; [9]) | IC50 (α2β1-collagen I; [10]) | IC50 [1, 11] | IC50 (α9β1) |
| --- | --- | --- | --- | --- | --- | --- | --- | --- | --- | --- | --- | --- | --- | --- | --- |
| CSCC[C@@H]1NC(=O)[C@H]([C@@H](C)O)NC(=O)CN(C(=O)[C@@H](N)CCCCN)CCCCCCNC(=O)NCCCCCCN(CC(=O)N[C@@H](CC(C)C)C(N)=O)C(=O)[C@H](CC(=O)O)NC(=O)[C@H](CC(C)C)NC1=O [visabron c (6–6)] (H-K[N(6-aminohexyl)Gly]TMLD[N(6-aminohexyl)Gly]L-NH2; linker 2-7 via CO) | > 10 mM | > 0.5 mM | 0.0009 mM | > 10 mM | > 10 mM | 0.004 mM | 0.005 mM | 0.015 mM | 0.02 mM | 0.0007 mM | – | – | – | – | – |
| CSCC[C@H](NC(=O)[C@@H](NC(=O)[C@H](CCCNC(=N)N)NC(=O)[C@H](CCCCN)NC(=O)[C@@H](N)CS)[C@@H](C)O)C(=O)N[C@@H](CC(C)C)C(=O)N[C@@H](CC(=O)O)C(=O)NCC(=O)N[C@@H](CC(C)C)C(=O)N[C@@H](CC(N)=O)C(=O)N[C@@H](CC(=O)O)C(=O)N[C@@H](Cc1ccc(O)cc1)C(=O)N[C@@H](CS)C(N)=O [sequence 3, CKRTMLDGLNDYC] (H-CKRTMLDGLNDYC-NH2; N-terminus and C-terminus assumed) | – | – | – | – | – | – | – | – | – | – | > 10 mM | > 10 mM | > 10 mM | 1.45 ± 0.105 mM | 1.25 ± 0.095 mM |
| CSCC[C@@H]1NC(=O)[C@H]([C@@H](C)O)NC(=O)CN(C(=O)[C@@H](N)CCCNC(=N)N)CCCCNC(=O)NCCCCN(CC(=O)N[C@@H](CC(C)C)C(N)=O)C(=O)[C@H](CC(=O)O)NC(=O)[C@H](CC(C)C)NC1=O [Arg-visabron c (4–4)] (H-R[Nlys]TMLD[Nlys]L-NH2; linker 2-7 via CO; N-terminus assumed) | > 10 mM | – | > 10 mM | > 10 mM | > 10 mM | > 5 mM | > 5 mM | – | – | > 10 mM | – | – | – | – | – |
| CSCC[C@H](NC(=O)[C@@H](NC(=O)[C@H](CCCNC(=N)N)NC(=O)[C@@H](N)CCCCN)[C@@H](C)O)C(=O)N[C@@H](CC(C)C)C(=O)N[C@@H](CC(=O)O)C(=O)NCC(=O)N[C@@H](CC(C)C)C(N)=O [sequence 5, KRTMLDGL] (H-KRTMLDGL-NH2; N-terminus and C-terminus assumed) | – | – | – | – | – | – | – | – | – | – | > 10 mM | > 10 mM | > 10 mM | 1.31 ± 0.095 mM | 1.26 ± 0.08 mM |
| CSCC[C@H](NC(=O)[C@H](C)NC(=O)[C@H](CCCNC(=N)N)NC(=O)[C@H](CCCCN)NC(=O)[C@@H](N)CS)C(=O)N[C@@H](CC(C)C)C(=O)N[C@@H](CC(=O)O)C(=O)NCC(=O)N[C@@H](CC(C)C)C(=O)N[C@@H](CC(N)=O)C(=O)N[C@@H](CC(=O)O)C(=O)N[C@@H](Cc1ccc(O)cc1)C(=O)N[C@@H](CS)C(N)=O [sequence 4, CKRAMLDGLNDYC] (H-CKRAMLDGLNDYC-NH2; N-terminus and C-terminus assumed) | – | – | – | – | – | – | – | – | – | – | > 10 mM | > 10 mM | > 10 mM | 3.91 ± 0.08 mM | 2.84 ± 0.115 mM |
